The values below come from patent US20230303613A1, “3′3′ CYCLIC DINUCLEOTIDES WITH AN ALKENYLENE” (Institute of Organic Chemistry and Biochemistry AS CR, v.v.i, priority 2020, published 2023).

Read-outs that look alike come from different tables or passages of the source.

One test concerns the target WT STING (Homo sapiens, UniProt Q86WV6, H232R). Put plainly: 293T WT STING standard reporter assay. In kind it is cell-based. Conditions: 293T wtSTING-FL cells; 7 hours with compound, no digitonin; ISRE firefly luciferase reporter. The text has this: Two complementary oligonucleotides of the sequence […] […] […] […] […] The oligonucleotides were mixed in equal molar amounts, hybridized, and cleaved by restriction endonucleases HindIII (cat. #. R0104S, NEB, Ipswich, USA) and BglII (cat. # R0144S, NEB, Ipswich, USA). Ultimately, they were ligated into plasmid pGL4.27 (cat. # E6651, Promega, Madison, USA) linearized with the same enzymes. As result the sequence with four ISRE sites was placed upstream of the minimum promoter of firefly luciferase reporter gene.
After 5 minutes incubation at room temperature (RT), 250 µL of the mixture was added dropwise to the cells in one well. Cells were incubated 36 hours at 37° C. with 5% CO2, and then detached with 0.05% Trypsin and 0.22 g/L EDTA (both cat. # L0941, Biowest, Riverside, USA).
Transfected cells were seeded onto poly-D-lysine coated six well plates at density 50,000 cells per 1 cm^2 in DMEM medium with high glucose containing 10% heat inactivated FBS, 30 µg/mL blasticidin (cat. # ant-bl-05, InvivoGen, San Diego, USA), 0.06 mg/ml Penicillin G and 0.1 mg/ml Streptomycin Sulfate (both cat. #. L0018, Biowest, Riverside, USA). The medium was replenished every 3 - 4 days until visible colonies of cells resistant to blasticidin were formed.
Blasticidin resistant cells stably expressing WT STING were further transfected with […] plasmid following the same procedure as described above. […] Homogeneous culture of stably double transfected cells was prepared by limiting dilution of cells in 96 well plates and wells with cells were selected that originated from a single cell.
The medium was removed next day and three-fold serial dilutions of compounds in 100 µl medium were added to the cells. The plates with cells were incubated for 7 hours at 37° C. with 5% CO2. After 50 µl of the medium was removed, 30 µl of ONE-Glo^Tm Luciferase Assay System reagent (cat. # E6120, Promega, Madison, USA) was added to each well and luminescence was read on Synergy H1 (Biotek, Winooski, USA).
(Reporter assays use an easily measured gene product as a stand-in for the process of interest.)

The subject of test [1] is peripheral blood mononuclear cell (PBMC). Kind of test: Peripheral blood mononuclear cell assay. Conditions: 1h with compound, washed, 15 hour incubation. Type of test: cell-based. The procedure: Selected compounds were tested in an in vitro peripheral blood mononuclear cell (PBMC) assay. Freshly isolated PBMCs were seeded into U-shaped shaped 96-well plates at desity 500,000 cells per well in 50 µl of RPMI 1640 medium supplemented with 10% heat inactivated FBS. Serially dilluted tested compounds were added to wells in 50 µl of cultivation medium and cell were incubated with compounds for 1h at 37° C. with 5% CO2. Plates with cells were then spun 500 g for 5 minutes and medium was removed. Cells were washed twice with the cell culture medium by the use of centrifugation and gently resuspended in 100 µl medium without compounds. After 15 hour incubation at 37° C. with 5% CO2, the cell culture medium was collected and the levels of interferon-alpha (INF-α), interferon-gamma (INF-γ) and tumor necrosis factor-alpha (TNF-α) were determined with ProcartaPlex Assays (ThermoFisher, Waltham, USA) and MAGPIX System (Merck KGaA, Darmstadt, Germany).

[2] abbreviates: IFN-α level in medium, read-out: PBMC EC50 IFN-α.
The mark [3] stands for this setting: TNF-α level in medium, read-out: PBMC EC50 TNF-α.
The mark [4] stands for this setting: PBMC, IFN-γ level in medium, read-out: PBMC EC50 IFN-γ.
Where [5] appears, read: PBMC, IFN-α level in medium, read-out: PBMC EC50 IFN-α.
Setting [6] is: PBMC, TNF-α level in medium, read-out: PBMC EC50 TNF-α.

Sequence of WT STING (Q86WV6 whole entry H232R): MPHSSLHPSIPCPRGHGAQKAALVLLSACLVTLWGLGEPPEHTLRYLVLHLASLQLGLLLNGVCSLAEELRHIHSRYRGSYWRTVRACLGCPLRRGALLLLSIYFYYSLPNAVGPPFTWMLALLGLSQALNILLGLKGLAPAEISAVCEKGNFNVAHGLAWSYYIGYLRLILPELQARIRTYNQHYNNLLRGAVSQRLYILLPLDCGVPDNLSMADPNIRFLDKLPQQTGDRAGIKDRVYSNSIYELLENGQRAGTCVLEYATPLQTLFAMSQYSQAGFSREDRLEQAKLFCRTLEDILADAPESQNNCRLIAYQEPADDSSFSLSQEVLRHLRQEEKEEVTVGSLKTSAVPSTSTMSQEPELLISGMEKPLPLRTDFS

The EC50 is the concentration at which the effect is half-maximal. Regarding `CCCCCCCC(=O)OCOP1(=O)/C=C/[C@H]2O[C@@H](n3cnc4c(N)ncnc43)[C@H](F)[C@@H]2OP(=O)(OCOC(=O)CCCCCCC)OC[C@H]2O[C@@H](n3cnc4c(N)ncnc43)[C@H](F)[C@@H]2O1` (single isomer, unassigned) [Compound 83c], at WT STING, the EC50 came to 3 nM.
Take “{[(1R,6R,8R,9R,10R,13E,15R,17R,18R)-8,17-bis(6-amino-9H-purin-9-yl)-9,18-difluoro-3,12-dioxo-3-({[(propan-2-yloxy)carbonyl]oxy}methoxy)-2,4,7,11,16-pentaoxa-3λ^5,12λ^5- diphosphatricyclo[13.3.0.0^6,^10]octadec-13-en-12-yl]oxy}methyl propan-2-yl carbonate [Compound 81c]”: the EC50 amounted to 122 nM at WT STING; 600 nM in test [1] (setting [2]); 1300 nM in test [1] (IFN-γ level in medium, read-out: PBMC EC50 IFN-γ); 250 nM in test [1] (setting [3]).
`CC(C)(C)C(=O)OCOP1(=O)/C=C/[C@H]2O[C@@H](n3cnc4c(N)ncnc43)C[C@@H]2OP(=O)(OCOC(=O)C(C)(C)C)OC[C@H]2O[C@@H](n3cnc4c(N)ncnc43)[C@H](F)[C@@H]2O1` (single isomer, unassigned) [Compound 87c]: the EC50 at WT STING was 260 nM.
For the molecule `CCCCCCCCCCCC(=O)OCOP1(=O)/C=C/[C@H]2O[C@@H](n3cnc4c(N)ncnc43)[C@H](F)[C@@H]2OP(=O)(OCOC(=O)CCCCCCCCCCC)OC[C@H]2O[C@@H](n3cnc4c(N)ncnc43)[C@H](F)[C@@H]2O1` (single isomer, unassigned) [Compound 85b], the EC50 at WT STING came to 3 nM.
`CCC(C)(C)C(=O)OCOP1(=O)/C=C/[C@H]2O[C@@H](n3cnc4c(N)ncnc43)[C@H](F)[C@@H]2OP(=O)(OCOC(=O)C(C)(C)CC)OC[C@H]2O[C@@H](n3cnc4c(N)ncnc43)[C@H](F)[C@@H]2O1` (single isomer, unassigned) [Compound 84b]: the EC50 on WT STING is 10 nM; in test [1] (setting [2]), 80 nM; in test [1] (setting [3]) it was 70 nM; in test [1] (setting [4]), 60 nM.
`CC(C)OC(=O)OCOP1(=O)/C=C/[C@H]2O[C@@H](n3cnc4c(N)ncnc43)[C@H](F)[C@@H]2OP(=O)(OCOC(=O)OC(C)C)OC[C@H]2O[C@@H](n3cnc4c(N)ncnc43)[C@H](F)[C@@H]2O1` (stereo partly drawn) [Compound 81a, {[(1R,6R,8R,9R,10R,13E,15R,17R,18R)-8,17-bis(6-amino-9H-purin-9-yl)-9,18-difluoro-3,12-dioxo-3-({[(propan-2-yloxy)carbonyl]oxy}methoxy)-2,4,7,11,16-pentaoxa-3λ^5,12λ^5-diphosphatricyclo[13.3.0.0^6,^10]octadec-13-en-12-yl]oxy}methyl propan-2-yl carbonate]: the EC50 at WT STING was found to be 9500 nM.
For `CCCCCCCC(=O)OCOP1(=O)/C=C/[C@H]2O[C@@H](n3cnc4c(N)ncnc43)[C@H](F)[C@@H]2OP(=O)(OCOC(=O)CCCCCCC)OC[C@H]2O[C@@H](n3cnc4c(N)ncnc43)[C@H](F)[C@@H]2O1` (single isomer, unassigned) [Compound 83b], on WT STING, the EC50 is 3 nM.
Still for that read-out and setting: the value for `CC1(C(=O)OCOP2(=O)/C=C/[C@H]3O[C@@H](n4cnc5c(N)ncnc54)[C@H](F)[C@@H]3OP(=O)(OCOC(=O)C3(C)CCCCC3)OC[C@H]3O[C@@H](n4cnc5c(N)ncnc54)[C@H](F)[C@@H]3O2)CCCCC1` (single isomer, unassigned) [Compound 82a] was 200 nM.
Regarding `CC(C)(C)C(=O)OCOP1(=O)/C=C/[C@H]2O[C@@H](n3cnc4c(N)ncnc43)C[C@@H]2OP(=O)(OCOC(=O)C(C)(C)C)OC[C@H]2O[C@@H](n3cnc4c(N)ncnc43)[C@H](F)[C@@H]2O1` (single isomer, unassigned) [Compound 87a], the EC50 at WT STING stood at 12100 nM.
Same read-out and setting: the value for `CCCCCCCC(=O)OCOP1(=O)/C=C/[C@H]2O[C@@H](n3cnc4c(N)ncnc43)[C@H](F)[C@@H]2OP(=O)(OCOC(=O)CCCCCCC)OC[C@H]2O[C@@H](n3cnc4c(N)ncnc43)[C@H](F)[C@@H]2O1` (single isomer, unassigned) [Compound 83a] was 23 nM.
Still for that read-out and setting: the figure for `CC(C)(C)C(=O)OCOP1(=O)/C=C/[C@H]2O[C@@H](n3cnc4c(N)ncnc43)C[C@@H]2OP(=O)(OCOC(=O)C(C)(C)C)OC[C@H]2O[C@@H](n3cnc4c(N)ncnc43)[C@H](F)[C@@H]2O1` (single isomer, unassigned) [Compound 87b] is 670 nM; for `CCC(C)(C)C(=O)OCOP1(=O)/C=C/[C@H]2O[C@@H](n3cnc4c(N)ncnc43)[C@H](F)[C@@H]2OP(=O)(OCOC(=O)C(C)(C)CC)OC[C@H]2O[C@@H](n3cnc4c(N)ncnc43)[C@H](F)[C@@H]2O1` (single isomer, unassigned) [Compound 84a] it is 150 nM.
Turning to `CCC(C)(C)C(=O)OCOP1(=O)/C=C/[C@H]2O[C@@H](n3cnc4c(N)ncnc43)[C@H](F)[C@@H]2OP(=O)(OCOC(=O)C(C)(C)CC)OC[C@H]2O[C@@H](n3cnc4c(N)ncnc43)[C@H](F)[C@@H]2O1` (single isomer, unassigned) [Compound 84c], the EC50 was found to be 7 nM on WT STING, 30 nM in test [1] (setting [2]) and 10 nM in test [1] (setting [3]).
In the case of `CC(C)(C)C(=O)OCOP1(=O)/C=C/[C@H]2O[C@@H](n3cnc4c(N)ncnc43)[C@H](F)[C@@H]2OP(=O)(OCOC(=O)C(C)(C)C)OC[C@H]2O[C@@H](n3cnc4c(N)ncnc43)[C@H](F)[C@@H]2O1` (single isomer, unassigned) [Compound 80b], on WT STING, the EC50 amounted to 22 nM.
For the molecule `CCCCCCCCCCCC(=O)OCOP1(=O)/C=C/[C@H]2O[C@@H](n3cnc4c(N)ncnc43)[C@H](F)[C@@H]2OP(=O)(OCOC(=O)CCCCCCCCCCC)OC[C@H]2O[C@@H](n3cnc4c(N)ncnc43)[C@H](F)[C@@H]2O1` (single isomer, unassigned) [Compound 85a], the 50% effective concentration (EC50) at WT STING came to 0.4 nM; in test [1] (setting [5]), 20 nM; in test [1] (setting [4]) it was 10 nM; in test [1] (setting [6]) it was 20 nM.
Turning to `CC1(C(=O)OCOP2(=O)/C=C/[C@H]3O[C@@H](n4cnc5c(N)ncnc54)[C@H](F)[C@@H]3OP(=O)(OCOC(=O)C3(C)CCCCC3)OC[C@H]3O[C@@H](n4cnc5c(N)ncnc54)[C@H](F)[C@@H]3O2)CCCCC1` (single isomer, unassigned) [Compound 82b], the EC50 at WT STING is 80 nM.
In the case of `CC1(C(=O)OCOP2(=O)/C=C/[C@H]3O[C@@H](n4cnc5c(N)ncnc54)[C@H](F)[C@@H]3OP(=O)(OCOC(=O)C3(C)CCCCC3)OC[C@H]3O[C@@H](n4cnc5c(N)ncnc54)[C@H](F)[C@@H]3O2)CCCCC1` (single isomer, unassigned) [Compound 82c], the EC50 is 15 nM on WT STING, 100 nM in test [1] (setting [5]), 70 nM in test [1] (setting [4]) and 60 nM in test [1] (setting [6]).
Consider “{[(1R,6R,8R,9R,10R,13E,15R,17R,18R)-8,17-bis(6-amino-9H-purin-9-yl)-9,18-difluoro-3,12-dioxo-3-({[(propan-2-yloxy)carbonyl]oxy}methoxy)-2,4,7,11,16-pentaoxa-3λ^5,12λ^5- diphosphatricyclo[13.3.0.0^6,^10]octadec-13-en-12-yl]oxy}methyl propan-2-yl carbonate [Compound 81b]”, for which, at WT STING, the EC50 stood at 1200 nM.
On the same count and under the same terms, the value for `CC(C)(C)C(=O)OCOP1(=O)/C=C/[C@H]2O[C@@H](n3cnc4c(N)ncnc43)[C@H](F)[C@@H]2OP(=O)(OCOC(=O)C(C)(C)C)OC[C@H]2O[C@@H](n3cnc4c(N)ncnc43)[C@H](F)[C@@H]2O1` (single isomer, unassigned) [Compound 80a] was 84 nM.
